pIC50: −log10 of the molar value.
Columns and labels:
[1] = target: T1, PIKFYVE (Homo sapiens, UniProt Q9Y2I7); experiment: NanoBRET TE Intracellular Kinase Assay, interaction of PIKFYVE and compounds in HEK293 cells; assay type: cell-based; settings: IC50 class from BRET; HEK293 cells expressing PIKFYVE-NanoLuc; 2 hours incubation
T1 construct: host or cells: HEK293 (ATCC, CRL-1573)
Protocol: To predict the efficacy of the compounds according to Example on PIKFYVE in humans, the interaction between PIKFYVE and the compounds was tested using the HEK293 cell line derived from human embryonic kidney (ATCC, CRL-1573) via NanoBRETT TE Intracellular Kinase Assay Service of Carna biosciences Inc., (Japan). The evaluation method provided by Carna biosciences Inc., was shown below and the NanoBRET™ TE Intracellular Kinase Assay, K-8 Kit (Promega, CS1810C88) was used.
The HEK-293 cells cultured in Opti-MEM™ I Reduced Serum Medium (Thermo Fisher, 11058-021) were transfected with Transfection Carrier DNA (Promega, E4881), PIKFYVE-NanoLuc Fusion Vector (Promega, CS1810C225), and FuGENE HD Transfection Reagent (Promega, E2311) to produce cells expressing genes combining PIKFYVE and NanoLuc, followed by culturing 100 μl (2×10^5 cells/ml) each in 96-well plates (Corning, 3917).
10× compounds according to Examples or Comparative Examples prepared by concentration in 1× NanoBRET™ tracer reagent and DMSO were reacted in 96-well plates and incubated for 2 hours in a 37° C., 5% CO2 incubator.
After the reaction was completed, 3× Complete NanoBRET™ Nano-Glo Substrate solution was added to each well, and the reaction was allowed to run for 2-3 minutes at room temperature before BRET was measured using a GloMax Discover Multimode Microplate Reader (Promega).

[2] = target: T2, human GST-PIKFYVE (Homo sapiens, UniProt Q9Y2I7); experiment: ADP-Glo kinase assay, enzyme inhibition activity against human PIKFYVE (Carna biosciences); assay type: biochemical; settings: inhibitory activity at final compound concentration 10 nM; 1 hour at room temperature
T2 construct: GST; purchased Carna biosciences 11-118
T2 sequence (Q9Y2I7 whole entry): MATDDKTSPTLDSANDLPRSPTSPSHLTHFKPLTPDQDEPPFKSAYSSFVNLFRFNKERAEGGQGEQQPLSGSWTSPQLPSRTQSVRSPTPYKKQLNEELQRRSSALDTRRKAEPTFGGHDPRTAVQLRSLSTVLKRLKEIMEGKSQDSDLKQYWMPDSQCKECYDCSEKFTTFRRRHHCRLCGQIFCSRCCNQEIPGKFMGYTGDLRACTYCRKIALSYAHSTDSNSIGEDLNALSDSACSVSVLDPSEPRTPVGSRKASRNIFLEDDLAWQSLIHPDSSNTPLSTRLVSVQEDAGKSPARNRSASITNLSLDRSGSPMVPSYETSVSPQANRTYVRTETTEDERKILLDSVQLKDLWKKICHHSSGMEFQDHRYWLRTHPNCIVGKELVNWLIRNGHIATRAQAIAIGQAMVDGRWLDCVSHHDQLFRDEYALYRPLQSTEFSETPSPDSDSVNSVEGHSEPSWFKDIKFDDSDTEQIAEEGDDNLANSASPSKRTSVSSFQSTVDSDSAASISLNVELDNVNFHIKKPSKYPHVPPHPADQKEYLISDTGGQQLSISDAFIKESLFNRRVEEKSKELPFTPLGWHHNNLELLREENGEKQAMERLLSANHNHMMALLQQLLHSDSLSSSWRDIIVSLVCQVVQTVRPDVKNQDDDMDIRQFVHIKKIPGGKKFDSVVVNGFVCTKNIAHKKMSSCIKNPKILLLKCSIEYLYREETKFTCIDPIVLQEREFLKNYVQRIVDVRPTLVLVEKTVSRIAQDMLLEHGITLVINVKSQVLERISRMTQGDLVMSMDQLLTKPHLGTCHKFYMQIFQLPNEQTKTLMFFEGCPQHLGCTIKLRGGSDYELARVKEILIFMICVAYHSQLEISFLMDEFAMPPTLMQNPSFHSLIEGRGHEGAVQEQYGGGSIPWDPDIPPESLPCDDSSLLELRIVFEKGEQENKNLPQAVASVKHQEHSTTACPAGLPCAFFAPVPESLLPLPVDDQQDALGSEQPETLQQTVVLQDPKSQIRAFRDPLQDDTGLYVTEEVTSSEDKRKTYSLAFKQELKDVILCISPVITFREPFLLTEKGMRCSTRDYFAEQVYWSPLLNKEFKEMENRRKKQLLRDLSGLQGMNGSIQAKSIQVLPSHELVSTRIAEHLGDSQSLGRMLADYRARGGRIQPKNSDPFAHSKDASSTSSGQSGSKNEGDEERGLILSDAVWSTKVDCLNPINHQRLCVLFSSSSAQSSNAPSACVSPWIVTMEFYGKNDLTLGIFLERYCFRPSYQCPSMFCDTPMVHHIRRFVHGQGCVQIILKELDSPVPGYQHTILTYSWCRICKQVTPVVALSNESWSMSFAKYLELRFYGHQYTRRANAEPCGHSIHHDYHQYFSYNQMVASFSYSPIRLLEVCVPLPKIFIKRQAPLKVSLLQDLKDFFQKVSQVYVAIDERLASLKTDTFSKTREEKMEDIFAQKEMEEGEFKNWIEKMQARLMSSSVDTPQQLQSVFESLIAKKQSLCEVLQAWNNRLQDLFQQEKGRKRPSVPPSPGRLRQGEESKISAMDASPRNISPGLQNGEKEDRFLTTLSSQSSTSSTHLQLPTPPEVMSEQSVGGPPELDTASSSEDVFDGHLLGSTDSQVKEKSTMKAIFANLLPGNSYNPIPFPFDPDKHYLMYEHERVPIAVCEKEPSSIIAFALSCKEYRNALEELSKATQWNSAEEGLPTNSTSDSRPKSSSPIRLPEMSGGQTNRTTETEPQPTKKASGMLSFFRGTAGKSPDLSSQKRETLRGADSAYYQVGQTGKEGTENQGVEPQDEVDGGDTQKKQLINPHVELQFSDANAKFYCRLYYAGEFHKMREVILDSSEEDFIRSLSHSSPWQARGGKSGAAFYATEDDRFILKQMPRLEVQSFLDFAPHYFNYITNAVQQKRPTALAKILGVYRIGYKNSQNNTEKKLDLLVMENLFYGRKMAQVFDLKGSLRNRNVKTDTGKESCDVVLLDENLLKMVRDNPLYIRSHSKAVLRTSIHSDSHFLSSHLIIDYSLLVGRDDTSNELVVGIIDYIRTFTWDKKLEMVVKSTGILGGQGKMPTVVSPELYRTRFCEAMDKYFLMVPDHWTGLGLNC
In short: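 Human GST-PIKFYVE (glutathione Sepharose-purified) was reacted with substrate and ATP for 1 h at room temperature in 50 mM MOPS, 1 mM DTT, pH 7.2, with compound at 10 nM final. ADP formed was read by ADP-Glo luminescence; inhibition was calculated against no-enzyme (100%) and no-compound (0%) controls.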

T1 sequence (Q9Y2I7 whole entry): as above

Row | SMILES | pIC50 [1] | ADP-Glo kinase assay (%, 10 nM) [2]
1 | Cc1cccc(/C=N/Nc2nc(N3CCOCC3)nc3c2ncn3C2CCN(S(C)(=O)=O)CC2)c1 [Example 92, (E)-4-(6-(2-(3-methylbenzylidene)hydrazinyl)-9-(1-(methylsulfonyl)piperidin-4-yl)-9H-purin-2-yl)morpholino] | 7.52 to 7.70 | 61.82%
2 | Cc1cccc(/C=N/Nc2nc(N3CCOCC3)nc3c2ncn3-c2ccnc(Cl)c2)c1 [Example 115, (E)-4-(9-(2-chloropyridin-4-yl)-6-(2-(3-methylbenzylidene)hydrazinyl)-9H-purin-2-yl)morpholine] | ≥ 8.00 | 92.24%
3 | Cc1cccc(/C=N/Nc2nc(N3CCOCC3)nc3c(-c4c(C)noc4C)cccc23)c1 [Example 210, (E)-4-(8-(3,5-dimethylisoxazol-4-yl)-4-(2-(3-methylbenzylidene)hydrazinyl)quinazolin-2-yl)morpholine] | 7.52 to 7.70 | 65.10%
4 | COc1ccc(-n2cnc3c(N/N=C/c4cccc(C)c4)nc(N4CCOCC4)nc32)nc1 [Example 108, (E)-4-(9-(5-methoxypyridin-2-yl)-6-(2-(3-methylbenzylidene)hydrazinyl)-9H-purin-2-yl)morpholine] | ≥ 8.00 | 80.35%
5 | Cc1cccc(/C=N/Nc2nc(N3CCOCC3)nc3c2ncn3C2CCN(C(=O)c3ccccc3)CC2)c1 [Example 89, (E)-(4-(6-(2-(3-methylbenzylidene)hydrazinyl)-2-morpholino-9H-purin-9-yl)piperidin-1-yl)(phenyl)methanone] | 7.70 to 8.00 | 76.44%
6 | Cc1cccc(-c2ccn(-c3nc(N4CCOCC4)nc4c3ncn4-c3cccnc3)n2)c1 [Example 118, 4-(9-(pyridin-3-yl)-6-(3-(m-tolyl)-1H-pyrazol-1-yl)-9H-purin-2-yl)morpholine] | ≥ 8.00 | 81.33%
7 | Cc1cccc(/C=N/Nc2nc(N3CCOCC3)nc3c2ncn3-c2ccc(C#N)cn2)c1 [Example 146, (E)-6-(6-(2-(3-methylbenzylidene)hydrazinyl)-2-morpholino-9H-purin-9-yl)nicotinonitrile] | ≥ 8.00 | 79.77%
8 | COC(=O)N1CCC(n2cnc3c(N/N=C/c4cccc(C)c4)nc(N4CCOCC4)nc32)CC1 [Example 91, methyl (E)-4-(6-(2-(3-methylbenzylidene)hydrazinyl)-2-morpholino-9H-purin-9-yl)piperidine-1-carboxylate] | 7.70 to 8.00 | 73.33%
9 | Cc1cccc(/C=N/Nc2nc(N3CCOCC3)nc3c2ncn3-c2ccccn2)c1 [Example 99, (E)-4-(6-(2-(3-methylbenzylidene)hydrazinyl)-9-(pyridin-2-yl)-9H-purin-2-yl)morpholine] | ≥ 8.00 | 87.24%
10 | Cc1cccc(/C=N/Nc2nc(N3CCOCC3)nc3c2ncn3CC(=O)c2cccc(F)c2)c1 [Example 46, (E)-1-(3-fluorophenyl)-2-(6-(2-(3-methylbenzylidene)hydrazinyl)-2-morpholino-9H-purin-9-yl)ethan-1-one] | 7.70 to 8.00 | 73.96%
11 | Cc1cccc(/C=N/Nc2nc(N3CCOCC3)nc3c2ncn3CC(=O)c2cccn2C)c1 [Example 30, (E)-1-(1-methyl-1H-pyrrol-2-yl)-2-(6-(2-(3-methylbenzylidene)hydrazinyl)-2-morpholino-9H-purin-9-yl)ethan-1-one] | 7.70 to 8.00 | 76.90%
12 | Cc1cccc(/C=N/Nc2nc(N3CCOCC3)nc3c2ncn3-c2ccnc(O)c2)c1 [Example 102, (E)-4-(6-(2-(3-methylbenzylidene)hydrazinyl)-2-morpholino-9H-purin-9-yl)pyridin-2-ol] | ≥ 8.00 | 91.19%
13 | Cc1cccc(/C=N/Nc2nc(N3CCOCC3)nc3c2ncn3C2CCN(C(=O)c3ccncc3)CC2)c1 [Example 93, (E)-(4-(6-(2-(3-methylbenzylidene)hydrazinyl)-2-morpholino-9H-purin-9-yl)piperidin-1-yl)(pyridin-4-yl)methanone] | 7.52 to 7.70 | 66.78%
14 | COc1cccc(-c2cccc3c(N/N=C/c4cccc(C)c4)nc(N4CCOCC4)nc23)c1 [Example 211, (E)-4-(8-(3-methoxyphenyl)-4-(2-(3-methylbenzylidene)hydrazinyl)quinazolin-2-yl)morpholine] | 7.52 to 7.70 | 64.14%
15 | Cc1cccc(/C=N/Nc2nc(N3CCOCC3)nc3c2ncn3CCc2ccccc2)c1 [Example 18, (E)-4-(6-(2-(3-methylbenzylidene)hydrazinyl)-9-phenethyl-9H-purin-2-yl)morpholine] | ≥ 8.00 | 89.87%
16 | Cc1ccc(-n2cnc3c(N/N=C/c4cccc(C)c4)nc(N4CCOCC4)nc32)nc1 [Example 143, (E)-4-(6-(2-(3-methylbenzylidene)hydrazinyl)-9-(5-methylpyridin-2-yl)-9H-purin-2-yl)morpholine] | ≥ 8.00 | 90.79%
17 | Cc1cccc(/C=N/Nc2nc(N3CCOCC3)nc3c2ncn3C2CCN(C(=O)c3cccnc3)CC2)c1 [Example 87, (E)-(4-(6-(2-(3-methylbenzylidene)hydrazinyl)-2-morpholino-9H-purin-9-yl)piperidin-1-yl)(pyridin-3-yl)methanone] | 7.70 to 8.00 | 63.65%
18 | Cc1cccc(/C=N/Nc2nc(N3CCOCC3)nc3c2ncn3-c2ccccc2)c1 [Example 119, (E)-4-(6-(2-(3-methylbenzylidene)hydrazinyl)-9-phenyl-9H-purin-2-yl)morpholine] | ≥ 8.00 | 80.61%
19 | COc1ccccc1-n1cnc2c(N/N=C/c3cccc(C)c3)nc(N3CCOCC3)nc21 [Example 124, (E)-4-(9-(2-methoxyphenyl)-6-(2-(3-methylbenzylidene)hydrazinyl)-9H-purin-2-yl)morpholine] | ≥ 8.00 | 87.81%
20 | Cc1cccc(/C=N/Nc2nc(N3CCOCC3)nc3c2ncn3-c2cncc(C)c2)c1 [Example 145, (E)-4-(6-(2-(3-methylbenzylidene)hydrazinyl)-9-(5-methylpyridin-3-yl)-9H-purin-2-yl)morpholine] | ≥ 8.00 | 94.29%
21 | Cc1cccc(/C=N/Nc2nc(N3CCOCC3)nc3c2ncn3CC(=O)c2ccccc2)c1 [Example 22, (E)-2-(6-(2-(3-methylbenzylidene)hydrazinyl)-2-morpholino-9H-purin-9-yl)-1-phenylethan-1-one] | 7.70 to 8.00 | 66.19%
22 | Cc1cccc(/C=N/Nc2nc(N3CCOCC3)nc3c2ncn3CC2CC2)c1 [Example 21, (E)-4-(9-(cyclopropylmethyl)-6-(2-(3-methylbenzylidene)hydrazinyl)-9H-purin-2-yl)morpholine] | 7.52 to 7.70 | 60.95%
23 | Cc1cccc(/C=N/Nc2nc(N3CCOCC3)nc3c2ncn3CC(=O)c2cccc(C(F)(F)F)c2)c1 [Example 44, (E)-2-(6-(2-(3-methylbenzylidene)hydrazinyl)-2-morpholino-9H-purin-9-yl)-1-(3-(trifluoromethyl)phenyl)ethan-1-one] | 7.52 to 7.70 | 62.80%
24 | Cc1cccc(/C=N/Nc2nc(N3CCOCC3)nc3c2ncn3CCc2cccnc2)c1 [Example 80, (E)-4-(6-(2-(3-methylbenzylidene)hydrazinyl)-9-(2-(pyridin-3-yl)ethyl)-9H-purin-2-yl)morpholine] | ≥ 8.00 | 83.61%
25 | Cc1cccc(/C=N/Nc2nc(N3CCOCC3)nc3c2ncn3-c2cc(C)ns2)c1 [Example 148, (E)-4-(6-(2-(3-methylbenzylidene)hydrazinyl)-9-(3-methylisothiazol-5-yl)-9H-purin-2-yl)morpholine] | ≥ 8.00 | 73.88%
26 | Cc1cccc(/C=N/Nc2nc(N3CCOCC3)nc3c2ncn3CC(=O)c2cccnc2)c1 [Example 28, (E)-2-(6-(2-(3-methylbenzylidene)hydrazinyl)-2-morpholino-9H-purin-9-yl)-1-(pyridin-3-yl)ethan-1-one] | 7.52 to 7.70 | 65.48%
27 | Cc1cccc(/C=N/Nc2nc(N3CCOCC3)nc3c2ncn3CC(=O)c2cccc(C#N)c2)c1 [Example 36, (E)-3-(2-(6-(2-(3-methylbenzylidene)hydrazinyl)-2-morpholino-9H-purin-9-yl)acetyl)benzonitrile] | 7.70 to 8.00 | 76.04%
28 | Cc1cccc(/C=N/Nc2nc(N3CCOCC3)nc3c2ncn3-c2ccncc2)c1 [Example 103, (E)-4-(6-(2-(3-methylbenzylidene)hydrazinyl)-9-(pyridin-4-yl)-9H-purin-2-yl)morpholine] | ≥ 8.00 | 91.20%
